Test results reported in patent publication US20250255893A1, “ISOPROPYL-D-GLUCOPYRANOSIDE DERIVATIVE, AND PREPARATION METHOD THEREFOR AND USE THEREOF” (NATIONAL TSING HUA UNIVERSITY, priority 2021, published 2025).

Legend:
[1] = test system: hippocampal neurons; experiment: In vitro hippocampal neuron repair (scratch injury, gap closure rate); type: cell-based, rat; conditions: 72 hours
Experimental: (§1) The experimental procedure is depicted in FIG. 2. Removed the brain of E18 rat embryos and dissected into cortex and hippocampus. Subsequently, the cortex and hippocampus were separated into cortical neurons and hippocampal neurons, respectively. Then, seeded hippocampal neurons on 48-well plates. The first day that neurons are cultured in vitro is defined as day in vitro 0 (DIV0). On DIV2, Cytosine beta-D-arabinoside (AraC) was added to neurons to inhibit the proliferation of glial cells. On DIV8, neurons were injured using pipette tips (p10 tips) and 9.674 nM to 967.4 μM Ampelopsisionoside was added. 0.1% DMSO served as the solvent control group, and the results in the figures were standardized against the 0.1% DMSO group. After 72 hours, immunostaining was performed. TUJ1 antibody was used to label neuronal cells to observe the regrowth of neurites. Images were taken using Observer Z1 microscope.
(§2) As depicted in FIG. 3, the degree of neuronal axon regeneration was quantified using the gap closure rate. White dashed lines indicate the borders of injury gap, the central black area represents the region scratched by the tip of a pipette tips. The newly regenerated neurites grow from the white dashed lines toward the center of the gap. To quantify the results, we measured the lengths of gap (Lg) and distance between regenerated neurites (Ln) every 50 m. After unbiasedly drawing ten lines of equal distance, the average distance between neurites is taken: Length of gap between regenerated neurons (Ln). Gap closure rate is calculated using the formula: (Lg−Ln)/Lg. Scale bar=100 m. Images were taken using Observer Z1 microscope.
(§3) Removed the brain of E18 rat embryos and dissected into cortex and hippocampus. Subsequently, the cortex and hippocampus were separated into cortical neurons and hippocampal neurons, respectively. Then, seeded hippocampal neurons on 48-well plates. The first day that neurons are cultured in vitro is defined as day in vitro 0 (DIV0). On DIV2, Cytosine beta-D-arabinoside (AraC) was added to neurons to inhibit the proliferation of glial cells. […]

[2] = test system: retinal explants; experiment: Ex vivo retinal explant neuronal repair; type: cell-based, C57BL/6 mice; conditions: five days, vs ddH2O
Experimental: Retinal explants were obtained from C57BL/6 mice at postnatal day 8. Following the sacrifice of mice, the eyes were enucleated, and the eyeballs were dissected using forceps and microscissors to separate the retina and remove the vitreous. Subsequently, the dissected retinas were quartered and trimmed along the edges of the tissue using microscissors. Each quarter was cultured on an 18 mm round coverslip and placed in a 12-well plate inside a CO2 incubator at 35° C. for five days. The culture medium was replaced daily with fresh medium containing either 13.5 µM or 135 µM Byzantionoside B. On the fifth day of culture, the retinal tissues were fixed with a mixture of 0.1% glutaraldehyde solution and 4% paraformaldehyde at room temperature for one hour. Immunostaining was performed using primary antibodies against the axonal marker beta-III-tubulin (TUJ1) and DAPI to label neurons and cell nuclei, respectively. Images were acquired using a super-resolution upright confocal microscope (LSM-800, Carl Zeiss). […] The ratio of neuronal fiber area to tissue boundary perimeter was then calculated to determine the unit perimeter neuronal fiber length.
Retinal explants were obtained from C57BL/6 mice at postnatal day 8. […] The ratio of neuronal fiber area to tissue boundary perimeter was then calculated to determine the unit perimeter neuronal fiber length.

[3] = test system: cortical neurons; experiment: In vitro cortical neuron repair (scratch injury, gap closure rate); type: cell-based, rat; conditions: 72 hours
Excerpt: as §2
as §1, with “Removed” for “The experimental procedure is depicted in FIG. 2. Removed”, “seeded cortical” for “seeded hippocampal”, “to 96.74” for “to 967.4”, “neurites. Scale bar=100 m.” for “neurites.”
as §3, with “seeded cortical” for “seeded hippocampal”

[4] = test system: injured brain sections; experiment: Ex vivo 3D brain slice culture, neurite outgrowth after scalpel injury; type: cell-based; conditions: 350 μm rat embryo brain sections, added every day, 96 hours, vs ddH2O
Experimental: (§4) The experimental procedure is depicted in FIG. 10. Took out the brain of rat embryos and embedded in low-melting agarose. The brains were sectioned using Leica microtome VT100. The tissue sections were collected with 350 μm thick and injured using a scalpel. ddH2O or Ampelopsisionside was added to injured brain sections every day. After 96 hours, immunostaining was performed. TUJ1 antibody was used to label neuron cells. GFAP antibody was used to label glial cells. DAPI was used to label nucleus. Scale bar=100 m. Images were taken using Zeiss LSM800 confocal microscope.
as §4, with “Byzantionoside B” for “Ampelopsisionside”
as §4, with “Roseoside” for “Ampelopsisionside”, “μm.” for “m.”

SMILES | neurite regrowth after injury (gap closure rate) ([1]; 0.013 M to 1294 μM, vs ddH2O) | recovery of injured retinal neurons (unit perimeter neuronal fiber length) ([2]; 13 μM or 130 μM) | dendritic outgrowth (gap closure rate) ([3]; 1.29 M to 25.88 M, vs ddH2O) | neurite outgrowth from injury site [4] | neurite regrowth after injury (gap closure rate) ([1]; 0.13 M to 1342 μM, vs ddH2O) | recovery of injured retinal neurons (unit perimeter neuronal fiber length) ([2]; 13.5 M or […]) | neurite outgrowth (gap closure rate) ([3]; 1.34 M to 26.84 M, vs ddH2O) | neurite regrowth after injury (gap closure rate) ([1]; 9.674 nM to 967.4 μM, vs 0.1% DMSO) | dendritic outgrowth (gap closure rate) ([3]; 9.674 nM to 96.74 μM, vs 0.1% DMSO)
CC1=CC(=O)CC(C)(C)[C@@]1(O)/C=C/[C@@H](C)O[C@@H]1O[C@H](CO)[C@@H](O)[C@H](O)[C@H]1O [Roseoside] | promotes neurite regrowth after injury | significant recovery of injured retinal neurons | effectively promotes dendritic outgrowth | promotes neurite outgrowth | – | – | – | – | –
CC1=CC(=O)CC(C)(C)[C@H]1CC[C@@H](C)O[C@@H]1O[C@H](CO)[C@@H](O)[C@H](O)[C@H]1O [Byzantionoside B] | – | – | – | promotes neurite outgrowth | promotes neurite regrowth after injury | significant recovery of injured retinal neurons | effectively promotes neurite outgrowth | – | –
C[C@H](/C=C/[C@@]1(O)[C@H](C)CC(=O)CC1(C)C)O[C@@H]1O[C@H](CO)[C@@H](O)[C@H](O)[C@H]1O [Ampelopsisionoside] | – | – | – | promotes neurite outgrowth | – | – | – | promotes neurite regrowth after injury | effectively promotes dendritic outgrowth
